Test results taken from US9809623B2, “α4β7 peptide monomer and dimer antagonists” (Protagonist Therapeutics, Inc., priority 2014, dated 2017).
Like-named read-outs stand apart in the source and are kept apart here. Numbered stars: 1 amine (or outer) side, 2 acyl side, 3 side chain; on linkers, the order of the positions; unused ones are H or OH. Bridge positions count the residues as written; N and C are the ends. Square brackets hold non-standard residues; d marks the D form. Peptide text beside a SMILES is read from it. I, II: the chains in the order shown. ξ: configuration not given here. Phe(4-tBu) = CC(C)(C)c1ccc(C[C@H](N)C(=O)O)cc1; Diglycolyl = O=C(COCC(=O)[*:2])[*:1]; NMeR = CN[C@@H](CCCNC(=N)N)C(=O)O; β3hE = N[C@@H](CCC(=O)O)CC(=O)O; Thr(3ξ) = CC(O)[C@H](N)C(=O)O; NMeK = CN[C@@H](CCCCN)C(=O)O; Pen = CC(C)(S)[C@H](N)C(=O)O

Biological target: T1, rh integrin α4β7 (Homo sapiens, UniProt P13612+P26010)
T1 construct: purchased R&D Systems 5397-A30
Experiment: α4β7-MAdCAM Competition ELISA
Type: binding
Procedure, shortened: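 Recombinant human α4β7 was captured on nickel plates at 800 ng/well. Peptide in 3-fold serial dilution (final top 10 μM) competed with MAdCAM-1 (final 10 nM) for 1 h at room temperature in 50 mM Tris pH 7.6, 150 mM NaCl, 1 mM MnCl2 or MgCl2. Bound MAdCAM-1 was detected with anti-human IgG1-HRP/TMB at A450.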

T1 sequence (P13612 34-977 limits assumed): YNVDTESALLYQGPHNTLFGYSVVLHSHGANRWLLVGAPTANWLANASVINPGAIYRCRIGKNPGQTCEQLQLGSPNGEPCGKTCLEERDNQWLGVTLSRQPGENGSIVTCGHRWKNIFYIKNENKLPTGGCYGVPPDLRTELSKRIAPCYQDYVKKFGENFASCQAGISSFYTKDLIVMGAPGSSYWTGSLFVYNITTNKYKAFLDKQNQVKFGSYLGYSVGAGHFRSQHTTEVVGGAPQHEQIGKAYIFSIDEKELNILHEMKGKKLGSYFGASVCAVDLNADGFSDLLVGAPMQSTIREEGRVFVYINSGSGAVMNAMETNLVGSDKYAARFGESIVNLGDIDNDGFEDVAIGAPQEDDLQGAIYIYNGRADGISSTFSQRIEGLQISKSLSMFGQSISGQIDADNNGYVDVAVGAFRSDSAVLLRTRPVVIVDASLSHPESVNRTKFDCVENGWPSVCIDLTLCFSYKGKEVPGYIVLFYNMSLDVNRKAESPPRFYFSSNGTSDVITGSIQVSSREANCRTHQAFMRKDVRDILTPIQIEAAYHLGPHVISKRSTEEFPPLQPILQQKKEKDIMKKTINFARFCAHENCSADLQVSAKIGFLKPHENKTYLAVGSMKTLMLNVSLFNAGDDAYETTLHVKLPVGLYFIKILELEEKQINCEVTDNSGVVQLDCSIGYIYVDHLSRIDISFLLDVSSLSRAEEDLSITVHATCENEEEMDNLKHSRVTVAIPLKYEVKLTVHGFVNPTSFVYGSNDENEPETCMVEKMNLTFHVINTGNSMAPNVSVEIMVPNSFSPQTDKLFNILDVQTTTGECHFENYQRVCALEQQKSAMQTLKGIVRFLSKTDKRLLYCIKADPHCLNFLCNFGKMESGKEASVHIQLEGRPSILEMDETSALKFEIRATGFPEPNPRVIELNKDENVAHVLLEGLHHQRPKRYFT
T1 sequence (P26010 20-723 limits assumed): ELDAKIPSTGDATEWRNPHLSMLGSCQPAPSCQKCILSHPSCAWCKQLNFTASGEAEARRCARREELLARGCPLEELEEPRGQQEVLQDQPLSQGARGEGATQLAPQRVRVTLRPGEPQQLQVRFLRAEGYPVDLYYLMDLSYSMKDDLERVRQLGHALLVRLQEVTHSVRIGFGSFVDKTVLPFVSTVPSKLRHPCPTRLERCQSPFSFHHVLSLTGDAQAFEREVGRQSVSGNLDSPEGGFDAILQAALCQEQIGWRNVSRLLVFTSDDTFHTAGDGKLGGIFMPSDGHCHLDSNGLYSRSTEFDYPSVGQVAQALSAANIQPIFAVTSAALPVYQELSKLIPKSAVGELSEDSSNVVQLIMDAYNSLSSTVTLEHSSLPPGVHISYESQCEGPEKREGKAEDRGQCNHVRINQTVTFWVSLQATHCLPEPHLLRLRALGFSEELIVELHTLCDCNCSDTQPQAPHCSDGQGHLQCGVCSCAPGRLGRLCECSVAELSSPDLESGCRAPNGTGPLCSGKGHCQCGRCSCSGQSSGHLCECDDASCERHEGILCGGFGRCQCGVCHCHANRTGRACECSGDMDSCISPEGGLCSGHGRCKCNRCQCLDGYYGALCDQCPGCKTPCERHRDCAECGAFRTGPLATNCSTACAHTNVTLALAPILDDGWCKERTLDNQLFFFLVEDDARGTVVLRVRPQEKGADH

SMILES | IC50 (1 mM Mg^2+ binding conditions, read-out: IC50 for α4β7, competition ELISA) [nM] | IC50 (Table 3-B, Potency (α4β7), range classes, read-out: α4β7 ELISA IC50) [nM]
CC(=O)N[C@@H]1C(=O)N(C)[C@@H](CCCNC(=N)N)C(=O)N[C@@H](CO)C(=O)N[C@@H](CC(=O)O)C(=O)N[C@@H](C(C)O)C(=O)N[C@@H](CC(C)C)C(=O)N[C@H](C(=O)N[C@@H](Cc2ccc(C(C)(C)C)cc2)C(=O)N[C@@H](CCC(=O)O)CC(=O)N[C@H](CCCCNC(=O)COCC(=O)NCCCC[C@@H](NC(=O)C[C@H](CCC(=O)O)NC(=O)[C@H](Cc2ccc(C(C)(C)C)cc2)NC(=O)[C@H]2NC(=O)[C@H](CC(C)C)NC(=O)[C@H](C(C)O)NC(=O)[C@H](CC(=O)O)NC(=O)[C@H](CO)NC(=O)[C@H](CCCNC(=N)N)N(C)C(=O)[C@@H](NC(C)=O)C(C)(C)SSC2(C)C)C(N)=O)C(N)=O)C(C)(C)SSC1(C)C (stereo partly drawn) [Peptide X, [Ac-Pen-(N-Me-Arg)-Ser-Asp-Thr-Leu-Pen-(Phe(4-tBu))-(β-homoGlu)-(D-Lys)]2-DIG] (I: Ac-[Pen][NMeR]SD[Thr(3ξ)]L[Pen][Phe(4-tBu)][β3hE][dK]-NH2 / II: Ac-[Pen][NMeR]SD[Thr(3ξ)]L[Pen][Phe(4-tBu)][β3hE][dK]-NH2; disulfide I:1-I:7, II:1-II:7; linker I:10-II:10 via Diglycolyl) | 3 | 
CC(=O)N[C@@H]1C(=O)N(C)[C@@H](CCCNC(=N)N)C(=O)N[C@@H](CO)C(=O)N[C@@H](CC(=O)O)C(=O)N[C@@H]([C@@H](C)O)C(=O)N[C@@H](CC(C)C)C(=O)N[C@H](C(=O)N[C@@H](Cc2ccc(C(C)(C)C)cc2)C(=O)N[C@@H](CCC(=O)O)CC(=O)N(C)[C@@H](CCCCNC(=O)COCC(=O)NCCCC[C@@H](C(N)=O)N(C)C(=O)C[C@H](CCC(=O)O)NC(=O)[C@H](Cc2ccc(C(C)(C)C)cc2)NC(=O)[C@H]2NC(=O)[C@H](CC(C)C)NC(=O)[C@H]([C@@H](C)O)NC(=O)[C@H](CC(=O)O)NC(=O)[C@H](CO)NC(=O)[C@H](CCCNC(=N)N)N(C)C(=O)[C@@H](NC(C)=O)C(C)(C)SSC2(C)C)C(N)=O)C(C)(C)SSC1(C)C [compound 149] (I: Ac-[Pen][NMeR]SDTL[Pen][Phe(4-tBu)][β3hE][NMeK]-NH2 / II: Ac-[Pen][NMeR]SDTL[Pen][Phe(4-tBu)][β3hE][NMeK]-NH2; disulfide I:1-I:7, II:1-II:7; linker I:10-II:10 via Diglycolyl) |  | < 10
